System: HLA-A*11:01-restricted antigen-specific CD8+ T cells in patient's PBMC
Experiment: Highly multiplexed combinatorial pMHC tetramer staining with mass cytometry (epitope mapping, frequency of antigen-specific CD8+ T cells)
[1] = Acute resolved (R) patients, patients with detected tetramer+ CD8+ T cells (frequency > 0.002%) / patients in the group, per epitope cluster
[2] = Inactive Carrier (InA) CHB patients, patients with detected tetramer+ CD8+ T cells (frequency > 0.002%) / patients in the group, per epitope cluster
[3] = Immune Active (IA) patients, donors with tetramer+ CD8+ T cell frequency > 0.002% / donors tested
[4] = Immune Tolerant (IT) patients, donors with tetramer+ CD8+ T cell frequency > 0.002% / donors tested
[5] = Inactive Carrier (InA) patients, donors with tetramer+ CD8+ T cell frequency > 0.002% / donors tested
[6] = acute resolved (R) patients, donors with tetramer+ CD8+ T cell frequency > 0.002% / donors tested
[7] = patients with detected epitope-specific CD8+ T cells / patients tested, Immune Tolerant (IT) group, Freq > 0.002%
[8] = patients with detected epitope-specific CD8+ T cells / patients tested, Inactive Carrier (InA) group, Freq > 0.002%
[9] = patients with detected epitope-specific CD8+ T cells / patients tested, acute resolved (R) group, Freq > 0.002%
[10] = patients with detected epitope-specific CD8+ T cells / patients tested, Immune Active (IA) group, Freq > 0.002%
[11] = Immune Active (IA) CHB patients, patients with detected tetramer+ CD8+ T cells (frequency > 0.002%) / patients in the group, per epitope cluster
[12] = Immune Tolerant (IT) CHB patients, patients with detected tetramer+ CD8+ T cells (frequency > 0.002%) / patients in the group, per epitope cluster

With QTSERHGDK the “Hits (Freq > 0.002%) R” value [1] was 1/12 and the “Hits (Freq > 0.002%) InA” value [2] was 1/13.
In the case of QVLPKVLHK, the “Hits (Freq > 0.002%) IA” value [3] is reported as 1/12.
In the case of RGNTRVSWPK, the “Hits (Freq > 0.002%) IA” value [3] is reported as 2/12, the “Hits (Freq > 0.002%) IT” value [4] is reported as 1/8 and the “Hits (Freq > 0.002%) InA” value [5] is reported as 1/13. The “Hits (Freq > 0.002%) R” value [6] was 1/12.
RIINNQHR was tested, and the “Hits (Freq > 0.002%) IA” value [3] was 1/12 and the “Hits (Freq > 0.002%) R” value [6] was 1/12.
RSQSPRRRRSK was tested, and the “Hits (Freq > 0.002%) IT” value [7] was 8/8, the “Hits (Freq > 0.002%) InA” value [8] was 6/13 and the “Hits (Freq > 0.002%) R” value [9] was 6/12.
For RTQSPRRRR, the “Hits (Freq > 0.002%) IA” value [10] was 6/12, the “Hits (Freq > 0.002%) IT” value [7] was 1/8 and the “Hits (Freq > 0.002%) InA” value [8] was 5/13. For the same sequence, the “Hits (Freq > 0.002%) R” value [9] was 2/12.
In the case of RTTWSIHAK, the “Hits (Freq > 0.002%) IA” value [10] is reported as 5/12, the “Hits (Freq > 0.002%) IT” value [7] is reported as 2/8 and the “Hits (Freq > 0.002%) InA” value [8] is reported as 3/13. The “Hits (Freq > 0.002%) R” value [9] was 3/12.
RVTGGVFLVDK was tested, and the “Hits (Freq > 0.002%) IA” value [3] was 1/12.
In the case of SFSFGGFTFK, the “Hits (Freq > 0.002%) IA” value [10] is reported as 2/12, the “Hits (Freq > 0.002%) InA” value [8] is reported as 2/13 and the “Hits (Freq > 0.002%) R” value [9] is reported as 1/12.
With SQIGAGVYK the “Hits (Freq > 0.002%) IA” value [10] was 3/12, the “Hits (Freq > 0.002%) IT” value [7] was 1/8 and the “Hits (Freq > 0.002%) InA” value [8] was 2/13. The “Hits (Freq > 0.002%) R” value [9] was 1/12.
SSAGPCALR was tested, and the “Hits (Freq > 0.002%) InA” value [5] was 2/13.
With SSARSQSER the “Hits (Freq > 0.002%) InA” value [5] was 1/13.
With SSCLHQPAVRK the “Hits (Freq > 0.002%) InA” value [2] was 1/12.
In the case of SSCSSCPLSK, the “Hits (Freq > 0.002%) IT” value [7] is reported as 6/8 and the “Hits (Freq > 0.002%) R” value [9] is reported as 8/12.
STFHQALLDPR was tested, and the “Hits (Freq > 0.002%) IA” value [11] was 1/12.
STISSILSK was tested, and the “Hits (Freq > 0.002%) IA” value [11] was 1/12 and the “Hits (Freq > 0.002%) InA” value [2] was 1/13.
With STLPETAVVRR the “Hits (Freq > 0.002%) IA” value [3] was 4/12, the “Hits (Freq > 0.002%) InA” value [5] was 7/13 and the “Hits (Freq > 0.002%) R” value [6] was 9/12.
In the case of STNRQSGRK, the “Hits (Freq > 0.002%) R” value [1] is reported as 1/12, the “Hits (Freq > 0.002%) IA” value [11] is reported as 7/12 and the “Hits (Freq > 0.002%) IT” value [12] is reported as 5/8. The “Hits (Freq > 0.002%) InA” value [2] was 4/13.
In the case of STQVSWPK, the “Hits (Freq > 0.002%) IT” value [4] is reported as 2/8 and the “Hits (Freq > 0.002%) R” value [6] is reported as 1/12.
STVPCFNPK was tested, and the “Hits (Freq > 0.002%) R” value [1] was 1/12.
With SVLGPISGHVLK the “Hits (Freq > 0.002%) InA” value [8] was 2/13.
SVQPTFSVQR was tested, and the “Hits (Freq > 0.002%) IA” value [10] was 3/12, the “Hits (Freq > 0.002%) IT” value [7] was 2/8 and the “Hits (Freq > 0.002%) InA” value [8] was 4/13. For the same sequence, the “Hits (Freq > 0.002%) R” value [9] was 1/12.
With SVQRNLPFER the “Hits (Freq > 0.002%) IA” value [10] was 4/12, the “Hits (Freq > 0.002%) IT” value [7] was 4/8 and the “Hits (Freq > 0.002%) InA” value [8] was 6/13. For the same sequence, the “Hits (Freq > 0.002%) R” value [9] was 3/12.
For SVVRRAFPH, the “Hits (Freq > 0.002%) IA” value [3] was 3/12, the “Hits (Freq > 0.002%) IT” value [4] was 1/8 and the “Hits (Freq > 0.002%) InA” value [5] was 2/13.
For TSGSPIIDK, the “Hits (Freq > 0.002%) IT” value [7] was 1/8.
For TSMFPSCCCTK, the “Hits (Freq > 0.002%) IA” value [11] was 2/12, the “Hits (Freq > 0.002%) IT” value [12] was 1/8 and the “Hits (Freq > 0.002%) InA” value [2] was 1/13.
In the case of TTDLEAYFK, the “Hits (Freq > 0.002%) IA” value [10] is reported as 1/12, the “Hits (Freq > 0.002%) InA” value [8] is reported as 3/13 and the “Hits (Freq > 0.002%) R” value [9] is reported as 1/12.
TTKRDLGMSK was tested, and the “Hits (Freq > 0.002%) IA” value [10] was 2/12 and the “Hits (Freq > 0.002%) IT” value [7] was 1/8.
TTSTGPCK was tested, and the “Hits (Freq > 0.002%) R” value [1] was 1/12 and the “Hits (Freq > 0.002%) IA” value [11] was 1/12.
In the case of TVMDIISRR, the “Hits (Freq > 0.002%) IT” value [7] is reported as 2/8.
For TVNAHQVLPK, the “Hits (Freq > 0.002%) IA” value [3] was 3/13, the “Hits (Freq > 0.002%) IT” value [4] was 1/12 and the “Hits (Freq > 0.002%) R” value [6] was 2/12.
In the case of TVNETRRLK, the “Hits (Freq > 0.002%) IA” value [11] is reported as 2/12, the “Hits (Freq > 0.002%) IT” value [12] is reported as 1/8 and the “Hits (Freq > 0.002%) InA” value [2] is reported as 2/13.
In the case of TVNHYFQTR, the “Hits (Freq > 0.002%) IA” value [11] is reported as 4/12, the “Hits (Freq > 0.002%) IT” value [12] is reported as 5/8 and the “Hits (Freq > 0.002%) InA” value [2] is reported as 5/13.
In the case of TVPCFNPK, the “Hits (Freq > 0.002%) InA” value [2] is reported as 1/13.
With TVRAFSRAYHHRINR the “Hits (Freq > 0.002%) R” value [9] was 1/12.
With TVSAISSILSK the “Hits (Freq > 0.002%) R” value [1] was 1/12, the “Hits (Freq > 0.002%) IA” value [11] was 2/12 and the “Hits (Freq > 0.002%) IT” value [12] was 1/8.
For VSAISSILSK, the “Hits (Freq > 0.002%) IA” value [11] was 1/12.
With VSLMLLYK the “Hits (Freq > 0.002%) R” value [6] was 1/12.
VTGGVFLVDK was tested, and the “Hits (Freq > 0.002%) IA” value [3] was 1/12.
VTKYLPLDK was tested, and the “Hits (Freq > 0.002%) R” value [1] was 2/12, the “Hits (Freq > 0.002%) IT” value [12] was 1/8 and the “Hits (Freq > 0.002%) InA” value [2] was 3/13.
YVNVNMGLK was tested, and the “Hits (Freq > 0.002%) IA” value [10] was 1/12 and the “Hits (Freq > 0.002%) R” value [9] was 1/12.
For YVSLLLLYK, the “Hits (Freq > 0.002%) IA” value [3] was 2/12, the “Hits (Freq > 0.002%) IT” value [4] was 2/8 and the “Hits (Freq > 0.002%) InA” value [5] was 3/13. For the same sequence, the “Hits (Freq > 0.002%) R” value [6] was 1/12.

Reference: patent US12414990B2, “Use of HLA-A*11:01-restricted hepatitis B virus (HBV) peptides for identifying HBV-specific CD8+ T cells” (AGENCY FOR SCIENCE, TECHNOLOGY AND RESEARCH, priority 2019, dated 2025)
